SMILES strings stand for the structures. A value given as a limit tells only on which side of the number the result lay.

Data on 22 molecules can be found in patent US6716836B2, “Non-nucleoside reverse transcriptase inhibitors” (Boehringer Ingelheim (Canada) Ltd., priority 2001, dated 2004).

In assay [1] the target is T1, HIV-1 RT wild type (WT) (Human immunodeficiency virus type 1 group M subtype B, UniProt P04585).
T1 construct: Heterodimeric RT was eluted using a descending gradient; made in house; host or cells: E. coli
Briefly: Reverse Transcriptase (RT) assay, wild type enzyme. The class given is biochemical. The source says:
(§1) Among the enzymes for which Human Immunodeficiency Virus (HIV-1) encodes is a reverse transcriptase (1), so-named because it transcribes a DNA copy from an RNA template. This activity can be quantitatively measured in a cell-free enzyme assay, which has been previously described (2), and is based upon the observation that reverse transcriptase is able to use a synthetic template poly r(C) primed with oligo d(G) to transcribe a radio-labelled, acid-precipitable DNA strand utilising ^3H-dGTP as a substrate. The assay described below utilises the wild type (WT) enzyme, which is the predominant form of the enzyme observed with patients infected with HIV-1. Utilisation of mutant RT enzymes (for example, Y181C, prepared by site-directed mutagenesis in which the tyrosine residue at codon 181 has been replaced by a cysteine residue, or the mutants K103N, V106A and Y188C) and analogous assay conditions allows compounds to be evaluated for their effectiveness at inhibiting the mutant enzymes.
(§2) The HIV-1 RT expression clone, pKRT2, was obtained from Yale University (3). An overnight culture, grown in 2×YT medium (37° C., 225 rpm) (4), supplemented with 100 μg/mL ampicillin for positive selection was used to inoculate the 2×YT medium. The culture was incubated (37° C., 225 rpm) until it reached an OD600 of 0.6-0.9. At that time, the repressor inhibitor IPTG (isopropyl P-D-thiogalactopyranoside) was added to 0.5 mM, and the mixture was incubated for an additional 2 hours.
(§3) Purification of recombinant reverse transcriptase was performed using a combination of methods previously described (5). This procedure is summarised briefly as follows: E. Coli containing RT-1 wt or RT-1 (Y181 C) were suspended in 50 mM MES, pH 6.0 containing 10% glycerol, lysed in a French press, centrifuged, and the supernates discarded. Lysate pellets were extracted with buffer A (50 mM MES, pH 6.0, 100 mM KCl, 50 mM KPi, 10% glycerol, 0.02% hexyl-β-glucoside), and re-centrifuged; nucleic acid in supernates was precipitated with 0.1% polyethylenimine. […] Bound RT was eluted with a gradient of 0 to 1.0M
(§4) (NH4)2 SO4 in buffer B. Heparin-Sepharose fractions containing RT were concentrated (Amicon YM-30 membrane), combined with equal volumes of 2.0M (NH4)2SO4 in buffer B and injected onto a 21.5×150 mm TSK Phenyl-5PW HIC HPLC column (Phenomenex). Heterodimeric RT was eluted using a descending gradient of 1.0M to 0M (NH4)2SO4 in buffer B, concentrated, and stored at 4° C.
(§5) The 2.4× concentrated stock reaction mixture was aliquoted and stored at −20° C. The mixture is stable and can be thawed for use in each assay. This enzyme assay has been adapted to a 96 well microtiter plate system, and has been previously described (6). Tris buffer (50 mM, pH 7.8), vehicle (solvent diluted to match the compound dilution), or compounds in vehicle were dispensed into 96-well microtiter plates (10 μL/well; 3 wells/compound). The HIV-1 RT enzyme was thawed, diluted in 50 mM Tris pH 7.8 containing 0.05% Chaps to give 1.5 nM enzyme and 25 μL were dispensed per well. Ten μL of 0.5M EDTA were added to the first three wells of the microtiter plate. EDTA chelates the Mg^2+ present and prevents reverse transcription. This group served as background polymerisation, which was subtracted, from all other groups. Twenty-five μl of the 2.4× reaction mixture was added to all wells and the assay was allowed to incubate at room temperature for 30 minutes. The assay was terminated by precipitating the DNA in each well with 60 μL of sodium pyrophosphate (2% w/v) in 10% trichloroacetic acid (TCA) (10% w/v). The microtiter plate was incubated for 15 minutes at 4° C. and the precipitate was harvested onto #30 glass fibre paper (Schleicher & Schuell) using a Tomtech 96-well harvester. The filters were dried, placed in plastic bags with Betaplate scintillation cocktail (Pharmacia/LKB) and counted in the Betaplate counter (Pharmacia/LKB).
(§6) The calculation for percent inhibition is as follows: [formula] […]

The target of assay [2] is T2, HIV-1 RT double mutant K103N/Y181C (Human immunodeficiency virus type 1 group M subtype B, UniProt P04585, K690N/Y768C).
T2 construct: Heterodimeric RT was eluted using a descending gradient; made in house; host or cells: E. coli (inferred; the text describes only wild type and Y181C preparations)
The assay can be described thus: Reverse Transcriptase (RT) assay, double mutant enzyme. The class given is biochemical.
Text: as §1, §2, §3, §4, §5, §6

`CCN1c2ncc(COc3cccc4c3CS(=O)(=O)N4)cc2C(=O)N(C)c2ccc(F)nc21` [Compound 104]: the IC50 in assay [1] is above 1000 nM.
As to `CCNC(=O)CN1c2cccc(OCCc3cnc4c(c3)C(=O)N(C)c3cccnc3N4CC)c2CS1(=O)=O` [Compound 140], the IC50 in assay [1] and in assay [2] was below 100 nM throughout.
Consider `CCN1c2ncc(CCOc3cccc4c3CS(=O)(=O)N4CC(=O)NO)cc2C(=O)N(C)c2cccnc21` [Compound 133], for which the IC50 in assay [1] and in assay [2] was below 100 nM each time.
Consider `CCN(CC)C(=O)N1c2cccc(OCCc3cnc4c(c3)C(=O)N(C)c3cccnc3N4CC)c2CCS1(=O)=O` [Compound 610], for which the IC50 in assay [1] and in assay [2] was below 100 nM in each case.
Turning to `CCN1c2ncc(CCOc3ccc4c(c3)CNS4(=O)=O)cc2C(=O)N(C)c2cccnc21` [Compound 301], the IC50 in assay [1] is below 100 nM; in assay [2], 100 to 1000 nM.
For `Cc1cc(F)nc2c1NC(=O)c1cc(CCOc3cccc4c3CS(=O)(=O)N4C)cnc1N2C1CC1` [Compound 118], the IC50 in assay [1] was below 100 nM; in assay [2], 100 to 1000 nM.
On the same counts, the results for `CCN1c2ncc(CCOc3cccc4c3CCS(=O)(=O)N4Cc3ccc[n+]([O-])c3)cc2C(=O)N(C)c2cccnc21` [Compound 632] are below 100 nM and below 100 nM.
Turning to `CCN1c2ncc(CCOc3cccc4c3CS(=O)(=O)N4CC(=O)NC3CC3)cc2C(=O)N(C)c2cccnc21` [Compound 139], the IC50 was below 100 nM in assay [1] and 100 to 1000 nM in assay [2].
Turning to `CCOC(=O)CCCN1c2cccc(OCCc3cnc4c(c3)C(=O)N(C)c3cccnc3N4CC)c2CS1(=O)=O` [Compound 135], the IC50 in assay [1] and in assay [2] was below 100 nM each time.
On to `CCN1c2ncc(CCOc3ccc4c(c3)CNS4(=O)=O)cc2C(=O)Nc2c(C)cc(F)nc21` [Compound 310], for which the IC50 in assay [1] is below 100 nM; in assay [2], 100 to 1000 nM.
Turning to `CCN1c2ncc(CCOc3cccc4c3CS(=O)(=O)N4C)cc2C(=O)N(C)c2ccc(F)nc21` [Compound 111], the 50% inhibitory concentration (IC50) in assay [1] and in assay [2] was below 100 nM throughout.
In the case of `CCN1c2ncc(CCOc3cccc4c3CS(=O)(=O)N4)cc2C(=O)N(C)c2ccc(C)nc21` [Compound 113], the IC50 in assay [1] is below 100 nM; in assay [2] it was 100 to 1000 nM.
On the same counts, the results for `CCN1c2ncc(CCOc3cccc4c3CCS(=O)(=O)N4C(=O)N3CCOCC3)cc2C(=O)N(C)c2cccnc21` [Compound 618] are below 100 nM and below 100 nM.
In the case of `CN1C(=O)c2cc(CCOc3cccc4c3CS(=O)(=O)N4)cnc2N(C2CC2)c2ncccc21` [Compound 105], the IC50 in assay [1] is below 100 nM.
In the case of `CCN1c2ncc(CCOc3cccc4c3CCS(=O)(=O)N4CS(C)(=O)=O)cc2C(=O)N(C)c2cccnc21` [Compound 627], the IC50 in assay [1] and in assay [2] was below 100 nM in each case.
`CCN1c2ncc(CCOc3cccc4c3CS(=O)(=O)N4CCOc3cc[n+]([O-])cc3)cc2C(=O)N(C)c2cccnc21` [Compound 143]: the IC50 in assay [1] and in assay [2] was below 100 nM throughout.
Regarding `CCN1c2ncc(CCOc3cccc4c3C=CS(=O)(=O)N4)cc2C(=O)N(C)c2cccnc21` [Compound 808], the IC50 in assay [1] is 100 to 1000 nM.
On to `Cc1cc(F)nc2c1NC(=O)c1cc(CCOc3cccc4c3CS(=O)(=O)N4)cnc1N2C1CC1` [Compound 106], for which, in assay [1], the IC50 was below 100 nM.
As for `CCN1c2ncc(COc3cccc4c3CS(=O)(=O)N4C)cc2C(=O)N(C)c2ccc(F)nc21` [Compound 107], the IC50 in assay [1] was below 100 nM.
On the same count and under the same terms, in the case of `CCN1c2ncc(CCOc3cccc4c3CS(=O)(=O)N4)cc2C(=O)Nc2c(C)ccnc21` [Compound 120] it was 100 to 1000 nM; in that of `CCN1c2ncc(COc3cccc4c3C(C)S(=O)(=O)N4C)cc2C(=O)N(C)c2ccc(F)nc21` (stereo not drawn) [Compound 108], 100 to 1000 nM.
Still for that read-out and setting: the figure for `CCN1c2ncc(COc3cccc4c3CS(=O)(=O)N4Cc3cc[n+]([O-])cc3)cc2C(=O)N(C)c2ccc(F)nc21` [Compound 148] is below 100 nM.
